According to ChEMBL document CHEMBL3822376, “Potent anticholinesterasic and neuroprotective pyranotacrines as inhibitors of beta-amyloid aggregation, oxidative stress and tau-phosphorylation for Alzheimer's disease” (Eur J Med Chem, 2016):
pEC50, pIC50, pKi: −log10 of the molar value. Activity calls are given as the source filed them. The rule behind the calls is not given here.

Columns and labels:
Acetylcholinesterase [1] = molecular target: T1, Acetylcholinesterase (Electrophorus electricus, UniProt O42275)
T1 sequence (O42275 whole entry): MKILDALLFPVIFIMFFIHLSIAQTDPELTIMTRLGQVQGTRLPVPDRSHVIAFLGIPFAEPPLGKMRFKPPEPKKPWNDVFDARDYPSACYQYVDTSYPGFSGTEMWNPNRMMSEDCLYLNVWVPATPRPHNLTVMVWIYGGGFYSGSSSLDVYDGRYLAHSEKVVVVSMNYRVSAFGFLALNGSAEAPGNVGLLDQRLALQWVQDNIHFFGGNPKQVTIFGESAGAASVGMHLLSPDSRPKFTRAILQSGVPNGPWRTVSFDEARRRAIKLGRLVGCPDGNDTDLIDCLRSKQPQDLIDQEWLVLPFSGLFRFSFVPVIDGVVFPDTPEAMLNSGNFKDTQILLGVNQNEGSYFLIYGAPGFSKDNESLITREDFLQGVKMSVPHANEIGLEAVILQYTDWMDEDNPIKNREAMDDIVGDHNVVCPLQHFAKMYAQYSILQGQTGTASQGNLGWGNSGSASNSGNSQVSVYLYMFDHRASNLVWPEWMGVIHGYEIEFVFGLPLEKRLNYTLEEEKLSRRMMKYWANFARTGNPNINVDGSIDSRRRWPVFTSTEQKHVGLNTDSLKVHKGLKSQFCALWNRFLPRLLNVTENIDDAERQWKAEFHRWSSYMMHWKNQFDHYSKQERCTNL
Description: Inhibition of electric eel AChE using acetylcholine as substrate preincubated for 15 mins followed by substrate addition by Ellman's method

in vitro [2] = conditions: human, HepG2 cells
Description: (§1) Hepatotoxicity in human HepG2 cells assessed as reduction in cell viability by MTT assay

in vitro [3] = conditions: human, SH-SY5Y cells
Description: Neurotoxicity in human SH-SY5Y cells assessed as cell viability at 1 uM after 24 hrs by XTT assay relative to control

SH-SY5Y [4] = experiment: cells; conditions: Homo sapiens, 24 h
Description: Neuroprotective activity against rotenone/oligomycin-A-induced cell death in human SH-SY5Y cells assessed as increase in cell viability after 24 hrs by XTT assay

SH-SY5Y [5] = experiment: Neuroprotective activity in human SH-SY5Y cells assessed as reversal of 20 nM okadaic acid-induced cell death at 1 to 10 uM after 24 hrs by XTT assay; format: functional, cell-based
in vitro [6] = conditions: human, SH-SY5Y cells; remark: listed apart in the source
Description: Neurotoxicity in human SH-SY5Y cells assessed as cell viability at 10 uM after 24 hrs by XTT assay relative to control

SH-SY5Y [7] = experiment: Neuroprotective activity against amyloid beta (1 to 40)-induced cell death in human SH-SY5Y cells assessed as increase in cell viability at 10 uM after 48 hrs by XTT assay; format: functional, cell-based
in vitro [8] = conditions: human, SH-SY5Y cells; remark: listed apart in the source
Description: Neurotoxicity in human SH-SY5Y cells assessed as cell viability at 50 uM after 24 hrs by XTT assay relative to control

in vitro [9] = conditions: human, SH-SY5Y cells; remark: listed apart in the source
Description: Neurotoxicity in human SH-SY5Y cells assessed as cell viability at 5 uM after 24 hrs by XTT assay relative to control

in vitro [10] = conditions: human, SH-SY5Y cells; remark: listed apart in the source
Description: Neurotoxicity in human SH-SY5Y cells assessed as cell viability at 0.1 uM after 24 hrs by XTT assay relative to control

in vitro [11] = conditions: human, SH-SY5Y cells; remark: listed apart in the source
Description: Neurotoxicity in human SH-SY5Y cells assessed as cell viability at 25 uM after 24 hrs by XTT assay relative to control

[12] = molecular target: Cholinesterase (Equus caballus) (UniProt P81908); experiment: Inhibition of horse serum BuChE using […] as substrate at 50 uM preincubated for 15 mins followed by substrate addition by Ellman's method relative to control
Sequence of Cholinesterase (Equus caballus) (P81908 whole entry): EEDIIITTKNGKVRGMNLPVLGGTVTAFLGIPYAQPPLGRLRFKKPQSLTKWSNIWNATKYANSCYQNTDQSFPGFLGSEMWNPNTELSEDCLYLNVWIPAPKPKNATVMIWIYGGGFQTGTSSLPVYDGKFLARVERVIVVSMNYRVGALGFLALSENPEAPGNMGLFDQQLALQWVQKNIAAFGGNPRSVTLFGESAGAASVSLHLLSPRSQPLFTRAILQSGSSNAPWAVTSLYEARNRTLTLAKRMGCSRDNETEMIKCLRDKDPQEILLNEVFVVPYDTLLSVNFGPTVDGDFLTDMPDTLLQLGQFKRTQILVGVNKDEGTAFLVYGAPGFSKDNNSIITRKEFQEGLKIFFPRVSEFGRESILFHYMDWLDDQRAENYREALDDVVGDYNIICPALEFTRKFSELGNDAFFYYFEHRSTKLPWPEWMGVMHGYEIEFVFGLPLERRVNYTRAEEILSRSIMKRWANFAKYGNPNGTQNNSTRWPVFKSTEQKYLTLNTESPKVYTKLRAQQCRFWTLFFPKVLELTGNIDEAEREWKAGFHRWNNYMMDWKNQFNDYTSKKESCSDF

SH-SY5Y [13] = experiment: Neuroprotective activity in human SH-SY5Y cells assessed as reversal of 15 nM okadaic acid-induced cell death at 1 to 10 uM after 24 hrs by XTT assay; format: functional, cell-based
in vitro [14] = conditions: human, HepG2 cells; remark: listed apart in the source
[15] = molecular target: Acetylcholinesterase (Homo sapiens) (UniProt P22303); experiment: Inhibition of AChE in human SH-SY5Y cells assessed as reduction in rotenone/oligomycin-A-induced tau phosphorylation at Ser-396 residue at 10 uM after 24 hrs by Western blot analysis; format: cell-based
Sequence of Acetylcholinesterase (Homo sapiens) (P22303 whole entry): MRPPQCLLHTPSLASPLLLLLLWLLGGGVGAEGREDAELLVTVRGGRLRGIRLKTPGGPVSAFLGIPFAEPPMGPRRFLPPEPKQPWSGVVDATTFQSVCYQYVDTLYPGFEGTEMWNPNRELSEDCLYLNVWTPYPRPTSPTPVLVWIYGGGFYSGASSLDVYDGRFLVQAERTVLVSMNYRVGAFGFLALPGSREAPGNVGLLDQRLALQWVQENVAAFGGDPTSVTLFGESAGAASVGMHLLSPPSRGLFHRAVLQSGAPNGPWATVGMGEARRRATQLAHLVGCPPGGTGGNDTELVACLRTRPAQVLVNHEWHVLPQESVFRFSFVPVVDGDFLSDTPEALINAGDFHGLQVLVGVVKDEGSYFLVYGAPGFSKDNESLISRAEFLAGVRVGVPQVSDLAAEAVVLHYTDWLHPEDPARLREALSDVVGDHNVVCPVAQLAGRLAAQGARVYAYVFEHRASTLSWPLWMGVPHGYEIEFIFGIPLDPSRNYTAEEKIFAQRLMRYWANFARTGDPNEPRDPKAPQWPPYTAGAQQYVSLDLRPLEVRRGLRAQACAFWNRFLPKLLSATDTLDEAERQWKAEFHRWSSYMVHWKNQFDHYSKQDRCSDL

[16] = molecular target: Acetylcholinesterase (Homo sapiens) (UniProt P22303); experiment: Inhibition of AChE in human SH-SY5Y cells assessed as inhibition of amyloid beta (1 to 40) (unknown origin)-induced tau phosphorylation at Ser-396 residue at 5 to 10 uM after 48 hrs by Western blot analysis; format: cell-based
[17] = molecular target: Acetylcholinesterase (Homo sapiens) (UniProt P22303); experiment: Inhibition of AChE in human SH-SY5Y cells assessed as decrease in okadaic acid-induced tau oligomerization at 10 uM after 24 hrs by Western blot analysis; format: cell-based
SH-SY5Y [18] = experiment: Neuroprotective activity against 20 nM okadaic acid-induced cell death in human SH-SY5Y cells at 5 to 10 uM after 24 hrs by phase contrast microscopic analysis; format: functional, cell-based
[19] = molecular target: Acetylcholinesterase (Homo sapiens) (UniProt P22303); experiment: Inhibition of AChE in human SH-SY5Y cells assessed as inhibition of amyloid beta (1 to 40) (unknown origin)-induced amyloid beta aggregation at 5 to 10 uM measured every 24 hrs for 7 days by Thioflavin T based fluorometric assay; format: cell-based
[20] = molecular target: Acetylcholinesterase (Homo sapiens) (UniProt P22303); experiment: Inhibition of AChE in human SH-SY5Y cells assessed as decrease in okadaic acid-induced tau phosphorylation at Ser-396 residue at 10 uM after 24 hrs by Western blot analysis; format: cell-based
SH-SY5Y [21] = experiment: Neuroprotective activity against amyloid beta (1 to 40)-induced cell death in human SH-SY5Y cells at 10 uM after 48 hrs by phase contrast microscopic analysis; format: functional, cell-based
[22] = molecular target: Acetylcholinesterase (Electrophorus electricus) (UniProt O42275); experiment: Inhibition of electric eel AChE-induced amyloid beta (1 to 40) aggregation at 25 uM measured every 24 hrs for 7 days by Thioflavin T based fluorometric assay relative to control
Sequence of Acetylcholinesterase (Electrophorus electricus) (O42275 24-633 limits assumed): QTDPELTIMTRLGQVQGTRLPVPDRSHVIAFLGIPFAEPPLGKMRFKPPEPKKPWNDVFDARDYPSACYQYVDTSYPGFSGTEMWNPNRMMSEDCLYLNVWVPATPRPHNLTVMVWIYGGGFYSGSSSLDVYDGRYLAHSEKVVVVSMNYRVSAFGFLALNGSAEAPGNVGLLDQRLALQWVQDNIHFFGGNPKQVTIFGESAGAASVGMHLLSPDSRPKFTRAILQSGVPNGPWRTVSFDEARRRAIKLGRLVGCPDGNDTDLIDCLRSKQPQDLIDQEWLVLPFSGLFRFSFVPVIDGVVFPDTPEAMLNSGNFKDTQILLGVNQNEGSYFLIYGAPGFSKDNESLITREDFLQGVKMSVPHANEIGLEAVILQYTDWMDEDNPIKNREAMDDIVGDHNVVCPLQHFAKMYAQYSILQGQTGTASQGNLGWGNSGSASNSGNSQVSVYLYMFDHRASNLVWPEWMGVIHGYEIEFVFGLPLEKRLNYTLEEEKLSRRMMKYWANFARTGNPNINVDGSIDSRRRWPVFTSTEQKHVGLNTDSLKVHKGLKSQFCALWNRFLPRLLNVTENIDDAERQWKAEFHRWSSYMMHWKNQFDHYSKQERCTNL

[23] = molecular target: Acetylcholinesterase (Electrophorus electricus) (UniProt O42275); conditions: 25 uM
Description: Inhibition of electric eel AChE-induced amyloid beta (1 to 40) aggregation at 25 uM measured every 24 hrs for 7 days by Thioflavin T based fluorometric assay relative to propidium iodide

Acetylcholinesterase [24] = molecular target: T1, Acetylcholinesterase; experiment: Mixed-type inhibition of electric eel AChE using acetylthiocholine as substrate preincubated for 15 mins followed by substrate addition by Dixon plot analysis

Description for HepG2: as §1

| Structure (SMILES) | pIC50 (Acetylcholinesterase [1]) | pEC50 (in vitro [2]) | viability at 24 h, 1 µM (in vitro [3]) [%] | pEC50 (SH-SY5Y [4]) | Activity (SH-SY5Y [5]) | viability at 24 h, 10 µM (in vitro [6]) [%] | Activity (SH-SY5Y [7]) | viability at 24 h, 50 µM (in vitro [8]) [%] | viability at 24 h, 5 µM (in vitro [9]) [%] | viability at 24 h, 0.1 µM (in vitro [10]) [%] | viability at 24 h, 25 µM (in vitro [11]) [%] | inhibition [12] [%] | Activity (SH-SY5Y [13]) | other results |
| --- | --- | --- | --- | --- | --- | --- | --- | --- | --- | --- | --- | --- | --- | --- |
| CCOC(=O)C1=C(C)Oc2nc3c(c(N)c2C1c1cc2ccc(OC)cc2nc1Cl)CCCCC3 (centres undefined) | 5.01 | 3.18 | 99 | 5.33 | inactive | 106 | Active | 106 | 125 | 84.2 | 109 |  |  |  |
| COc1ccc2cc(C3C4=C(CC(C)(C)CC4=O)Oc4nc5c(c(N)c43)CCCCC5)c(Cl)nc2c1 (centres undefined) | 5.55 | 3.48 | 97.3 | 5.25 | Active | 97.3 |  | 103 | 111 | 92.2 | 118 |  |  |  |
| CCOC(=O)C1=C(C)Oc2nc3c(c(N)c2C1c1cc2cc(C)ccc2nc1Cl)CCCC3 (centres undefined) | 6.27 | 3.89 | 82.9 | 5.61 | Active | 97.2 | Active | 80.2 | 101 | 90.1 | 112 | 50 | Active |  |
| CCOC(=O)C1=C(C)Oc2nc3c(c(N)c2C1c1cc2cccc(OC)c2nc1Cl)CCCC3 (centres undefined) | 6.21 |  | 91.9 | 5.71 | Active | 96.5 |  | 99.5 | 100 | 107 | 100 |  | Active | pEC50 (HepG2): 2.97 |
| COc1ccc2cc(C3C4=C(CC(C)(C)CC4=O)Oc4nc5c(c(N)c43)CCCC5)c(Cl)nc2c1 (centres undefined) | 4.83 | 3.04 | 95.6 | 4.91 | Active | 103 | Active | 90.6 | 113 | 93.8 | 113 |  |  |  |
| CCOC(=O)C1=C(C)Oc2nc3c(c(N)c2C1c1cc2cc(OC)ccc2nc1Cl)CCCC3 (centres undefined) | 5.65 | 4.14 | 110 | 6.47 | inactive | 116 |  | 68.5 | 135 | 128 | 125 |  |  |  |
| COc1ccc2cc(C3C4=C(CC(C)(C)CC4=O)Oc4nc5c(c(N)c43)CCC5)c(Cl)nc2c1 (centres undefined) | 6.24 |  | 91.6 | 6.20 | inactive | 102 |  | 94.9 | 113 | 85 | 124 |  |  | pEC50 (HepG2): 2.72; selectivity ratio (in vitro [14]): 11 |
| CCOC(=O)C1=C(C)Oc2nc3c(c(N)c2C1c1cc2ccc(OC)cc2nc1Cl)CCCC3 (centres undefined) | 5.82 | 3.03 | 130 | 5.64 | Active | 125 |  | 129 | 131 | 103 | 123 | 50 |  |  |
| CCOC(=O)C1=C(C)Oc2nc3c(c(N)c2C1c1cc2ccccc2nc1Cl)CCCC3 (centres undefined) | 6.32 |  | 104 | 5.81 | Active | 96.5 | Active | 93.6 | 99.7 | 110 | 95.5 | 50 | Active | pEC50 (HepG2): 2.32; inhibition [15]: Active; inhibition [16]: Active; inhibition [17]: Active; Activity (SH-SY5Y [18]): Active; inhibition [19]: Active; selectivity ratio (in vitro [14]): 27; inhibition [20]: Active; Activity (SH-SY5Y [21]): Active |
| CCOC(=O)C1=C(C)Oc2nc3c(c(N)c2C1c1cc2ccc(OC)cc2nc1Cl)CCC3 (centres undefined) | 5.40 | 3.03 | 135 | 5.62 | Active | 116 |  | 112 | 119 | 115 | 106 |  |  | inhibition [22]: 28.3% |
| COC(=O)C1=C(C)Oc2nc3c(c(N)c2C1c1cc2ccc(OC)cc2nc1Cl)CCCCC3 (centres undefined) | 5.73 | 3.13 | 93.2 | 5.25 | Active | 85.1 | Active | 75.1 | 95.9 | 90.8 | 98.6 | 50 |  |  |
| COC(=O)C1=C(C)Oc2nc3c(c(N)c2C1c1cc2ccc(OC)cc2nc1Cl)CCC3 (centres undefined) | 5.78 | 3.27 | 94.2 | 4.93 | Active | 98 | Active | 93.2 | 114 | 104 | 118 |  |  |  |
| COC(=O)C1=C(C)Oc2nc3c(c(N)c2C1c1cc2ccc(OC)cc2nc1Cl)CCCC3 (centres undefined) | 6.33 | 3.21 | 105 | 6.20 | Active | 113 | Active | 82.5 | 132 | 128 | 133 | 50 | Active | inhibition [16]: Active; Activity (SH-SY5Y [18]): Active; inhibition [19]: Active; inhibition [23]: 65%; pKi (Acetylcholinesterase [24]): 7.85; inhibition [22]: 75%; selectivity ratio (in vitro [14]): 3.4; Activity (SH-SY5Y [21]): Active |
